EC50, Concentration and Selectivity data for 20 compounds are collected here from ChEMBL document CHEMBL1143500, “Novel heterocyclic thyromimetics” (Bioorg Med Chem Lett, 2005).

One experiment has as its target T1, Thyroid hormone receptor (Homo sapiens, UniProt P10827+P10828).
T1 sequence (P10827 whole entry): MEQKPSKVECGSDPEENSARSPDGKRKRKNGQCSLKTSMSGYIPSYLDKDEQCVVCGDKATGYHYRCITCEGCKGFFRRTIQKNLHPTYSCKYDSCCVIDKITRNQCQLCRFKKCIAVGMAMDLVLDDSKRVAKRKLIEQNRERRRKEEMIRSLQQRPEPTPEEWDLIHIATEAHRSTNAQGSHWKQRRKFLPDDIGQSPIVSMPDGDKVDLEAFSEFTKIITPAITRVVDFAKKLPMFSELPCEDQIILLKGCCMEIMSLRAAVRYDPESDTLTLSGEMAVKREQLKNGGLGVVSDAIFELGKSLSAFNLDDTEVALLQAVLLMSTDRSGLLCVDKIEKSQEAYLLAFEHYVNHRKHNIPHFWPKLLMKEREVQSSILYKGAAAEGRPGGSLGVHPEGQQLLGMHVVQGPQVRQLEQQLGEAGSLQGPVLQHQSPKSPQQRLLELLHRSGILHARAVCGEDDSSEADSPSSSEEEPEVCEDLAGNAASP
T1 sequence (P10828 whole entry): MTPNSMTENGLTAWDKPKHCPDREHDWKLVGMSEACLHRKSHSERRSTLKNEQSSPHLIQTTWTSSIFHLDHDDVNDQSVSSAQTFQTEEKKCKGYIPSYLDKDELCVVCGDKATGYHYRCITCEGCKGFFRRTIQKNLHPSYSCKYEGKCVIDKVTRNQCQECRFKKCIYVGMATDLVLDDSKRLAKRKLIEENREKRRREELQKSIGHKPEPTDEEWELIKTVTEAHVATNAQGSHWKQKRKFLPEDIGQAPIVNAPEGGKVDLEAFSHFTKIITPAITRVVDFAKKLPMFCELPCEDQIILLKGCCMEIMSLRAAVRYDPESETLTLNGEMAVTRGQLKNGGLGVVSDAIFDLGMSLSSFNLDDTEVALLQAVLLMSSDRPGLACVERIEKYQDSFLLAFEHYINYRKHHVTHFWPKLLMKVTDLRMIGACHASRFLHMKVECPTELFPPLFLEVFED
Put plainly: (§1) Agonist activity towards thyroid hormone receptor expressed in human HepG2 cells. In kind it is functional, cell-based.

The target in experiment [1] is T2, Thyroid hormone receptor (Homo sapiens) (UniProt P10827+P10828). Described as §1. The experiment is classed as functional, cell-based.
The target of experiment [2] is T2, Thyroid hormone receptor (Homo sapiens). Put plainly: Selectivity for THRalpha and THRbeta, ratio of EC50. The experiment is classed as protein-complex assay.

For orientation: EC50 means the concentration at which the effect is half-maximal. At Thyroid hormone receptor, `CCOC(=O)C(=O)Nc1cc(C(F)(F)F)c(Oc2ccc3[nH]cc(Oc4ccc(F)cc4)c3c2)c(C(F)(F)F)c1` came in with an EC50 of 495 nM.

In experiment [1], `Cc1cc(OCC(=O)O)cc(C)c1Oc1ccc2[nH]cc(C(C)C)c2c1` displayed a Concentration of 24 nM.

`CCOC(=O)C(=O)Nc1cc(C(F)(F)F)c(Oc2ccc3[nH]ccc3c2)c(C(F)(F)F)c1` displayed an EC50 on Thyroid hormone receptor of 23 nM.

Consider `CC(C)c1c[nH]c2ccc(Oc3c(C(F)(F)F)cc(/C=C/C(=O)O)cc3C(F)(F)F)cc12`, for which the EC50 at Thyroid hormone receptor is 3.2 nM.

`CCOC(=O)C(=O)Nc1cc(C)c(Oc2ccc3[nH]cc(C(C)C)c3c2)c(C)c1` displayed an EC50 at Thyroid hormone receptor of 4 nM. Besides, the Selectivity in experiment [2] came to 10.

Regarding `CCOC(=O)C(=O)Nc1cc(C)c(Oc2ccc3[nH]cc(C)c3c2)c(C)c1`, the EC50 at Thyroid hormone receptor was determined as 15 nM.

On Thyroid hormone receptor, `CCOC(=O)C(=O)Nc1cc(C(F)(F)F)c(Oc2ccc3[nH]cc(C(C)C)c3c2)c(C(F)(F)F)c1` yielded a half-maximal effective concentration (EC50) of 3 nM. Moreover, in experiment [2], the Selectivity came to 10.

On to `CCOC(=O)C(=O)Nc1cc(C)c(Oc2ccc3[nH]ccc3c2)c(C)c1`, for which, at Thyroid hormone receptor, it took 72 nM to reach a half-maximal effect (EC50). That is a double-digit nanomolar value.

At Thyroid hormone receptor, `CC(C)c1c[nH]c2ccc(Oc3c(C(F)(F)F)cc(CC(=O)O)cc3C(F)(F)F)cc12` returned an EC50 of 0.5 nM.

`CC(C)c1c[nH]c2ccc(Oc3c(C(F)(F)F)cc(CCC(=O)O)cc3C(F)(F)F)cc12` yielded an EC50 at Thyroid hormone receptor of 2.6 nM.

In the case of `CCOC(=O)C(=O)Nc1cc(Cl)c(Oc2ccc3[nH]ccc3c2)c(Cl)c1`, the 50% effective concentration (EC50) on Thyroid hormone receptor was found to be 15 nM.

Compound `CCOC(=O)C(=O)Nc1cc(C(F)(F)F)c(Oc2ccc3[nH]cc(Cc4ccc(F)cc4)c3c2)c(C(F)(F)F)c1` came in with an EC50 on Thyroid hormone receptor of 11 nM. The EC50 values of the last two compounds are within 1.5-fold of each other.

On Thyroid hormone receptor, `CCOC(=O)CC(=O)Nc1cc(C)c(Oc2ccc3[nH]cc(C(C)C)c3c2)c(Cl)c1` registered an EC50 of 8 nM. Moreover, the Selectivity in experiment [2] was 10.

Regarding `COC(=O)C(=O)Nc1cc(Cl)c(Oc2ccc3[nH]cc(C(C)C)c3c2)c(Cl)c1`, at Thyroid hormone receptor, it took 4 nM to reach a half-maximal effect (EC50). In other words, the single-digit nanomolar range.

On to `CCOC(=O)C(=O)Nc1cc(C)c(Cc2ccc3[nH]cc(C(C)C)c3c2)c(C)c1`, for which the EC50 at Thyroid hormone receptor is 18 nM.

Consider `CCOC(=O)C(=O)Nc1cc(C(F)(F)F)c(Oc2ccc3[nH]cc(-c4ccc(F)cc4)c3c2)c(C(F)(F)F)c1`, for which the EC50 on Thyroid hormone receptor was determined as 115 nM.

As to `CCOC(=O)C(=O)Nc1cc(Br)c(Oc2ccc3[nH]cc(C(C)C)c3c2)c(Br)c1`, on Thyroid hormone receptor, the 50% effective concentration (EC50) was determined as 1.2 nM.

In turn, `CCCCCc1n[nH]c2ccc(Oc3c(C)cc(NC(=O)C(=O)OCC)cc3C)cc12` displayed an EC50 at Thyroid hormone receptor of 8 nM.

`C=Cc1cc(NC(=O)C(=O)OCC)cc(C=C)c1Oc1ccc2[nH]cc(C(C)C)c2c1`: a half-maximal effect at Thyroid hormone receptor (EC50) was put at 7.8 nM.

`CCOC(=O)C(=O)Nc1cc(C)c(Oc2ccc3[nH]cc(C(C)C)c3c2)c(Cl)c1` showed a concentration giving a half-maximal response (EC50) on Thyroid hormone receptor of 4 nM. Against the preceding compound, the EC50 is about 1.9-fold lower.
